# Earlier results in patent US20240350374A1, “COMPOSITION AND METHODS OF TREATMENT USING TRANSDERMAL SUPPLEMENTATION” (Xygenyx Inc., priority 2023, published 2024).
# Where a SMILES comes first, the peptide text is derived from it.
# Columns and labels:
# markers of inflammation = conditions: supplementation, individuals with metabolic syndrome
# [1] = compared to α-tocopherol = 1.0
# F2-isoprostane = conditions: large doses of 1600-3200 IU/day
# skin [2] = conditions: topical application, concentrations 0.5-5%
# [3] = in vivo
# [4] = even when dietary intake occurs in equal portions
# rheumatoid arthritis = conditions: arthritic subjects
# skin [5] = conditions: topical formulations, within four weeks of treatment
# skin [6] = conditions: as penetration enhancer
# [7] = system: wide dynamic range neurons in the ventroposterolateral nucleus of the thalamus; conditions: believed
compound,measurement,setting,value
Cc1cc(O)cc2c1O[C@](C)(CCC[C@H](C)CCC[C@H](C)CCCC(C)C)CC2 [δ-tocopherol],markers of inflammation in the blood,markers of inflammation,reduced
same,relative biological activity,[1],0.03
Cc1c(C)c2c(c(C)c1O)CC[C@@](C)(CCC[C@H](C)CCC[C@H](C)CCCC(C)C)O2 [α-tocopherol],blood plasma concentration of F2-isoprostane,F2-isoprostane,significantly lower
same,reduction of risk of coronary disease,"dietary supplementation, doses up to 400 IU/day",up to 34%
same,reduction of risk of developing neurodegenerative diseases (Alzheimer's Syndrome or dementia),"dietary supplementation, doses up to 400 IU/day, controlled trials",≤ 24%
same,reduction in the development of age-related cataracts,"in combination with 10-20 mg β-carotene and 400-500 mg vitamin C, doses around 400-500 IU",23%
same,relative biological activity,[1],1.0
"C=CCCCCCCCCC(=O)N[C@@H](Cc1ccccc1)C(=O)O [UP, Undecylenoyl phenylalanine]",time to skin lightening effects,skin [2],≥ 7 days
HGH: hormone comprising a peptide chain that is synthesized in the pituitary gland,biological half-life,[3],10-20 minutes
Cc1cc(O)c(C)c2c1O[C@](C)(CCC[C@H](C)CCC[C@H](C)CCCC(C)C)CC2 [β-tocopherol],relative biological activity,[1],0.5
Cc1c(O)cc2c(c1C)O[C@](C)(CCC[C@H](C)CCC[C@H](C)CCCC(C)C)CC2 [γ-tocopherol],concentration in vivo relative to α-tocopherol,[4],roughly 10%
same,relative biological activity,[1],0.1
C=C1CC/C=C(\C)CC[C@@H]2[C@@H]1CC2(C)C [β-caryophyllene],increases of protein carbonyl groups and myeloperoxidase activity in liver and plasma,rheumatoid arthritis,eliminated
same,number of circulating and articular leukocytes,rheumatoid arthritis,reduced
same,swelling of joints and lymph nodes,rheumatoid arthritis,reduced
"CC[C@H](C)[C@H](NC(=O)[C@H](CC(=O)O)NC(=O)[C@@H](N)CCCCN)C(=O)N[C@@H](CCCNC(N)=O)C(N)=O [tripeptide-10 citrulline, Tripeptide-10 citrulline] (HELM PEPTIDE1{K.D.I.[Cit].[am]}$$$$V2.0)",improvement of suppleness,skin [5],≤ 54%
"CC12CCC(CC1)C(C)(C)O2 [eucalyptol, 1,8-epoxy-p-menthane]",factor of increase of transdermal drug uptake / penetration,skin [6],more than 10
"CCCCCc1cc(O)c2c(c1)OC(C)(C)C1CCC(C)=CC21 (stereo not shown) [THC, Δ-9-tetrahydrocannabinol]",power in mediating pain relative to morphine,[7],ten times more powerful than morphine
CC(C)[C@@H]1CC[C@@H](C)C[C@H]1O [Menthol],factor of increase of transdermal drug uptake / penetration,skin [6],≥ 10
